The record followed here is US20250313528A1, “NOVEL COMPOUND AND PHARMACEUTICAL COMPOSITION FOR PREVENTING OR TREATING PULMONARY FIBROSIS COMPRISING SAME AS ACTIVE INGREDIENT” (GIL MEDICAL CENTER, priority 2022, published 2025).

The test system of the assay is bleomycin (BLM)-induced pulmonary fibrosis animal models. Nature of the assay: Hydroxyproline quantification in lung tissue of BLM model. It is filed as in vivo, C57BL/6N mice. Particulars: BLM mice, compared to the BLM group. The protocol: Specifically, 7-week-old C57BL/6N mice were exposed to BLM (3-5 units/kg) via the airway. The compounds were administered orally at doses of 200 μg/kg and 500 μg/kg for Compound 1, and 100 μg/kg and 200 μg/kg for Compound 2, three times a week for three weeks starting the day after BLM exposure. Body weight gain was periodically measured during the experimental period, and lung weight was measured at the end of the experiment.
Specifically, homogenized lung tissue was placed in 1.5 mL tubes in similar amounts to prevent thawing, and 100 μL of 12 M hydrochloric acid was added for hydrolysis at 120° C. for 3 hours. After centrifugation at 10,000×g for 5 minutes, the supernatant was transferred to a new tube, and 10 μL of the sample was transferred to a 96-well plate and evaporated at 60° C. Subsequently, 100 μL of chloramine T reagent/oxidation buffer mixture was added to each well, followed by 100 μL of para-dimethylaminobenzaldehyde reagent, and reacted at 60° C. for 90 minutes. Absorbance was measured at 540 nm, and the content was determined using a standard calibration curve prepared in the same manner.

In the case of `CCOC(=O)C(CSC(=S)NCCCC[S+](C)[O-])NC(C)=O` (stereo not drawn) [Compound 1], the “hydroxyproline content in lung tissue” value (200 μg/kg orally) is recorded as “reduced”.

As for `C=CCOC(=O)C(CSC(=S)NCCCC[S+](C)[O-])NC(C)=O` (stereo not drawn) [Compound 2], the “hydroxyproline content in lung tissue” value is, setting by setting: (100 μg/kg orally) “significant reductions”; (200 μg/kg orally) “significant reductions”.
